Test results as given in US6410567B1, “Pesticide containing a photosensitizer and an attractant” (priority 1996, dated 2002).

Tests used:
Format in all cases: in vivo
Ceratitis capitata = experiment: Comparative studies on the photoinsecticidal activity of different sensitizing compounds (percent survival after irradiation); settings: for Percent survival, 0 h after 1 h irradiation / Percent survival, 1 h after 1 h irradiation / Percent survival, 24 h after 1 h irradiation: 6 μmoles/ml photosensitizer for 24 h, 1220 μE s^−1 m^−2 for 1 h; for Percent survival, 0 h after 1 h irradiation: 0 h after irradiation; for Percent survival, 1 h after 1 h irradiation: 1 h after irradiation; for Percent survival, 24 h after 1 h irradiation: 24 h after irradiation; for Percent survival, pre-irradiation: Ceratitis capitata fed 24 h with sucrose solution containing 6 μmoles/ml photosensitizer, before irradiation
Description: 31. Comparative Studies on the Photosecticidal Activity of Different Sensitizing Compounds
Target: Ceratitis capitata
Light source: Sunlight-simulating halogen lamp
Light intensity (fluence rate): 1220 μE s^−1 m^−2
Groups of at least 20 flies were fed for 24 h with 3 ml of an aqueous solution containing sucrose (attractive) and 6 μmoles/ml of the photosensitizer. […]

flies [1] = experiment: Mortality investigations: control flies given only HP without irradiation; settings: flies fed HP in the food, no irradiation
Description: An appropriate number of flies (25 for each experiment) was removed from a population and starved for 48 hours. Then, depending on the individual experimental conditions, the flies were provided with food, the control animals being fed with sugar and water while the test group received hematoporphyrin (HP; shown below) which had been added to the food. The animals were then used for the individual experiments; for example, HP was extracted or the flies were irradiated, etc.
3. Mortality Investigations
Control flies and flies fed with HP were irradiated with light sources (HQIT 400W/D OSRAM) whose emitted light is similar to sunlight. The number of survivors was plotted against the irradiation time. The HP concentration, the flux rate and the exposure time (or the total light dose) were investigated as parameters in respect of their effect on the mortality.

flies [2] = experiment: Effect of the attractant buminal on the intake of HP (extraction, spectrofluorimetric analysis); settings: HP 8 μmol/ml offered for 6 h, in combination with buminal vs buminal-free food
Description: 19. Effect of the Attractant Buminal on the Intake and Action of HP
Groups of 10 flies each were fed for two days with an aqueous solution comprising sucrose and were then fed with compositions which contained the following ingredients:
1. HP (8 μmol/ml)+buminal (1 ml)
3. HP (8 μmol/ml)+1 ml sucrose (1.4 mg/ml)
4. HP (8 μmol/ml)+buminal (0.5 ml)+sucrose (0.5 ml)
The animals were able to take in the compositions indicated above for 6 hours. Thereafter the flies were subjected to an extraction in order to extract the HP taken in, which was quantified by a spectrofluorimetric analysis. From these experiments it is clearly evident that buminal is capable of sharply increasing the intake of HP by the flies, the flies taking in about four times the quantity of photosensitizer when the latter is offered in combination with buminal, in comparison to the buminal-free food. The addition of buminal therefore strengthens the action of HP.

Molecule | Percent survival, 0 h after 1 h irradiation (Ceratitis capitata) [%] | Percent survival, 1 h after 1 h irradiation (Ceratitis capitata) [%] | Percent survival, 24 h after 1 h irradiation (Ceratitis capitata) [%] | Percent survival, pre-irradiation (Ceratitis capitata) [%] | Mortality or toxic effect without irradiation (flies [1]) | Quantity of photosensitizer taken in with buminal in comparison to the buminal-free food (flies [2])
COc1ccc(NC(N)=S)cc1 [VI, 1-(4-methoxyphenyl)-2-thiourea] | 100 | 95 | 90 | 100 |  | 
C[n+]1ccc(-c2c3nc(c(-c4cc[n+](C)cc4)c4ccc([nH]4)c(-c4cc[n+](C)cc4)c4nc(c(-c5ccccc5)c5ccc2[nH]5)C=C4)C=C3)cc1 [II, meso-tri(4N-methyl-pyridyl)-monophenyl-porphine] | 10 | 0 | 0 | 100 |  | 
O=C([O-])c1cccc2sc3ccccc3c(=O)c12.[Na+] [VII, thioxanthene-9-one-1-carbonate (sodium salt)] | 100 | 100 | 90 | 100 |  | 
Nc1c(S(=O)(=O)[O-])ccc2c1C(=O)c1ccccc1C2=O.[Na+] [V, 1-amino-anthraquinone-2-sulphonate (sodium salt)] | 100 | 77 | 60 | 100 |  | 
CC1=C(CCC(=O)O)c2cc3[nH]c(cc4nc(cc5[nH]c(cc1n2)c(C)c5C(C)O)C(C)=C4C(C)O)c(C)c3CCC(=O)O (stereo not drawn) [I, hematoporphyrin] | 60 | 25 | 5 | 100 | In none of the experiments was mortality or a toxic effect observed | about four
O=C1OC2(c3cc(I)c(O)c(I)c3Oc3c2cc(I)c(O)c3I)c2c(Cl)c(Cl)c(Cl)c(Cl)c21 [IV, Rose bengal (tetrachloro, tetraiodo-fluorescein)] | 85 | 58 | 30 | 100 |  | 
Al(III)-phtalocyanine tetrasulphonate (sodium salt) | 100 | 95 | 90 | 100 |  | 
